Blank lines part the entries; values can stand above or below the compound they belong to.
Molecular target: human-cGAS (h-cGAS) (Homo sapiens, UniProt Q8N884)
Experiment: hcGAS Kinase-Glo Assay
Assay type: biochemical
Settings: 40 nM h-cGAS, 100 μM ATP, 100 μM GTP, 25 nM dsDNA, 3 h incubation, read-out: hcGAS potency IC50
Protocol: In some embodiments, the compounds of the instant disclosure may be tested for their human-cGAS (h-cGAS) inhibition activity using the methodology reported in Lama et al., “Development of human cGAS-specific small molecule inhibitors for repression of double stranded DNA (dsDNA)-triggered interferon expression”, Nature Communications 10, Article number: 2261 (2019), incorporated herein by reference. hcGAS Kinase-Glo Assay Compounds were tested for their human-cGAS (h-cGAS) inhibition activity using the methodology reported in Lama et al., “Development of human cGAS-specific small molecule inhibitors for repression of double stranded DNA (dsDNA)-triggered interferon expression”, Nature Communications 10. Article number: 2261 (2019), which is herein incorporated by reference in its entirety, with slight changes to some conditions as shown in Table B. The results of the assays, expressed in IC50 ranges are reported in Table C with the following designations: A represents an IC50 value <0.1 μM; B represents an IC50 value ≥0.1 μM and <0.5 μM; C represents an IC50 value ≥0.5 μM and <1.0 μM; D represents an IC50 value ≥1.0 μM. [table]

Sequence of human-cGAS (h-cGAS) (Q8N884 whole entry): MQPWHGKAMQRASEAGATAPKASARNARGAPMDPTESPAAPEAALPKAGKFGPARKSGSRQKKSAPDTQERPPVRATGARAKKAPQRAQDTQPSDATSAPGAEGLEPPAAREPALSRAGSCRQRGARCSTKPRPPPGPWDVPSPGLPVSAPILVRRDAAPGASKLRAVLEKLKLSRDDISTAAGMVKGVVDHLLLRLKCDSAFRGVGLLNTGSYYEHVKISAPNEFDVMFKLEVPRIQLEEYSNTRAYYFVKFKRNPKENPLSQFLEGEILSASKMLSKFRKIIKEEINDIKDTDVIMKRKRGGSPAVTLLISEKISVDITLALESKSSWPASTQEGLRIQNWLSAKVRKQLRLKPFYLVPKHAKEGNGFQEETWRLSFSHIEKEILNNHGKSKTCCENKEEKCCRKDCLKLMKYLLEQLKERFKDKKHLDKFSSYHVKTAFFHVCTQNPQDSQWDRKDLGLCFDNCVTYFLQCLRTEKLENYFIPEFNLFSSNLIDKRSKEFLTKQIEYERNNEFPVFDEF

SMILES: COC(=O)c1cc(C(=O)Nc2nnc(-c3ccccc3Cl)s2)on1 [Compound 1, Methyl 5-((5-(2-chlorophenyl)-1,3,4-thiadiazol-2-yl)carbamoyl)isoxazole-3-carboxylate]
IC50: 100 to 500 nM

SMILES: O=C(O)c1cc(C(=O)Nc2nnc(-c3ccccc3Cl)s2)on1 [Compound 2, 5-((5-(2-chlorophenyl)-1,3,4-thiadiazol-2-yl)carbamoyl)isoxazole-3-carboxylic acid]
IC50: < 100 nM

SMILES: CC(C)(C)OC(=O)Nc1cc(C(=O)Nc2nnc(-c3ccccc3Cl)s2)on1 [Compound 3, tert-butyl (5-((5-(2-chlorophenyl)-1,3,4-thiadiazol-2-yl)carbamoyl)isoxazol-3-yl)carbamate]
IC50: 100 to 500 nM

SMILES: Nc1cc(C(=O)Nc2nnc(-c3ccccc3Cl)s2)on1 [Compound 4, 3-amino-N-(5-(2-chlorophenyl)-1,3,4-thiadiazol-2-yl)isoxazole-5-carboxamide]
IC50: < 100 nM

SMILES: CC(=O)Nc1cc(C(=O)Nc2nnc(-c3ccccc3Cl)s2)on1 [Compound 5, 3-acetamido-N-(5-(2-chlorophenyl)-1,3,4-thiadiazol-2-yl)isoxazole-5-carboxamide]
IC50: 100 to 500 nM

SMILES: O=C(Nc1nnc(-c2ccccc2Cl)s1)c1ccno1 [Compound 6, N-(5-(2-chlorophenyl)-1,3,4-thiadiazol-2-yl)isoxazole-5-carboxamide]
IC50: 100 to 500 nM

SMILES: O=C(Nc1nnc(-c2ccccc2Cl)s1)c1onc2c1ccc1cccnc12 [Compound 7, N-(5-(2-chlorophenyl)-1,3,4-thiadiazol-2-yl)isoxazolo[4,3-h]quinoline-3-carboxamide]
IC50: < 100 nM

SMILES: O=C(Nc1nnc(-c2c(F)cccc2F)s1)c1onc2c1ccc1cccnc12 [Compound 8, N-(5-(2,6-difluorophenyl)-1,3,4-thiadiazol-2-yl)isoxazolo[4,3-h]quinoline-3-carboxamide]
IC50: 100 to 500 nM

SMILES: N#Cc1nnc(NC(=O)c2onc3c2ccc2cccnc23)s1 [Compound 9, N-(5-cyano-1,3,4-thiadiazol-2-yl)isoxazolo[4,3-h]quinoline-3-carboxamide]
IC50: 100 to 500 nM

SMILES: O=C(Nc1nnc(-c2ccccn2)s1)c1onc2c1ccc1cccnc12 [Compound 10, N-(5-(pyridin-2-yl)-1,3,4-thiadiazol-2-yl)isoxazolo[4,3-h]quinoline-3-carboxamide]
IC50: 100 to 500 nM

SMILES: CSc1nsc(NC(=O)c2onc3c2ccc2cccnc23)n1 [Compound 11, N-(3-(methylthio)-1,2,4-thiadiazol-5-yl)isoxazolo[4,3-h]quinoline-3-carboxamide]
IC50: 100 to 500 nM

SMILES: O=C(Nc1nnc(C(F)(F)F)s1)c1onc2c1ccc1cccnc12 [Compound 12, N-(5-(trifluoromethyl)-1,3,4-thiadiazol-2-yl)isoxazolo[4,3-h]quinoline-3-carboxamide]
IC50: 100 to 500 nM

SMILES: O=C(Nc1nncs1)c1onc2c1ccc1cccnc12 [Compound 13, N-(1,3,4-thiadiazol-2-yl)isoxazolo[4,3-h]quinoline-3-carboxamide]
IC50: 500 to 1000 nM

SMILES: CN(C)c1nnc(NC(=O)c2onc3c2ccc2cccnc23)s1 [Compound 14, N-(5-(dimethylamino)-1,3,4-thiadiazol-2-yl)isoxazolo[4,3-h]quinoline-3-carboxamide]
IC50: ≥ 1000 nM

SMILES: COC(=O)c1cc(C(=O)Nc2nnc(SC)s2)on1 [Compound 15, methyl 5-((5-(methylthio)-1,3,4-thiadiazol-2-yl)carbamoyl)isoxazole-3-carboxylate]
IC50: 500 to 1000 nM

SMILES: CSc1nnc(NC(=O)c2cc(C(=O)O)no2)s1 [Compound 16, 5-((5-(methylthio)-1,3,4-thiadiazol-2-yl)carbamoyl)isoxazole-3-carboxylic acid]
IC50: 100 to 500 nM

SMILES: CSc1nnc(NC(=O)c2cc(C3CC3)no2)s1 [Compound 17, 3-cyclopropyl-N-(5-(methylthio)-1,3,4-thiadiazol-2-yl)isoxazole-5-carboxamide]
IC50: 500 to 1000 nM

SMILES: O=C(Nc1nnc(C(F)F)s1)c1onc2ccccc12 [Compound 18, N-(5-(difluoromethyl)-1,3,4-thiadiazol-2-yl)benzo[c]isoxazole-3-carboxamide]
IC50: ≥ 1000 nM

SMILES: O=C(Nc1nnc(-c2ccccc2)s1)c1onc2ccccc12 [Compound 19, N-(5-phenyl-1,3,4-thiadiazol-2-yl)benzo[c]isoxazole-3-carboxamide]
IC50: ≥ 1000 nM

Next, values leading:

IC50: ≥ 1000 nM
SMILES: CSc1nnc(NC(=O)c2onc3ccc(CN4CC[C@@H](O)[C@H](O)C4)cc23)s1 (racemic) [rac-183, 5-((3,4-rac-trans-dihydroxypiperidin-1-yl)methyl)-N-(5-(methylthio)-1,3,4-thiadiazol-2-yl)benzo[c]isoxazole-3-carboxamide]

IC50: 500 to 1000 nM
SMILES: CSc1nnc(NC(=O)c2nnc(N3CCCC[C@@H]3c3ccccc3)o2)s1 (single isomer, unassigned) [Compound 121*]

IC50: 100 to 500 nM
SMILES: CSc1nnc(NC(=O)c2nnc(N3CCCC[C@H]3c3ccccc3)o2)s1 (single isomer, unassigned) [Compound 122*]

IC50: ≥ 1000 nM
SMILES: CCCc1nnc(NC(=O)c2onc3ccccc23)s1 [Compound 20, N-(5-propyl-1,3,4-thiadiazol-2-yl)benzo[c]isoxazole-3-carboxamide]

IC50: 500 to 1000 nM
SMILES: O=C(Nc1nnc(-c2ccccn2)s1)c1onc2ccccc12 [Compound 21, N-(5-(pyridin-2-yl)-1,3,4-thiadiazol-2-yl)benzo[c]isoxazole-3-carboxamide]

IC50: 100 to 500 nM
SMILES: O=C(Nc1nnc(-c2ccccc2Cl)s1)c1onc2ccccc12 [Compound 22, N-(5-(2-chlorophenyl)-1,3,4-thiadiazol-2-yl)benzo[c]isoxazole-3-carboxamide]

IC50: ≥ 1000 nM
SMILES: O=C(Nc1nnc(-c2cccc(Cl)c2)s1)c1onc2ccccc12 [Compound 23, N-(5-(3-chlorophenyl)-1,3,4-thiadiazol-2-yl)benzo[c]isoxazole-3-carboxamide]

IC50: 500 to 1000 nM
SMILES: COc1ccccc1-c1nnc(NC(=O)c2onc3ccccc23)s1 [Compound 24, N-(5-(2-methoxyphenyl)-1,3,4-thiadiazol-2-yl)benzo[c]isoxazole-3-carboxamide]

IC50: ≥ 1000 nM
SMILES: O=C(Nc1nnc(-c2cccc(F)c2)s1)c1onc2ccccc12 [Compound 25, N-(5-(3-fluorophenyl)-1,3,4-thiadiazol-2-yl)benzo[c]isoxazole-3-carboxamide]

IC50: 100 to 500 nM
SMILES: O=C(Nc1nnc(-c2ccccc2F)s1)c1onc2ccccc12 [Compound 26, N-(5-(2-fluorophenyl)-1,3,4-thiadiazol-2-yl)benzo[c]isoxazole-3-carboxamide]

IC50: 500 to 1000 nM
SMILES: Cc1ccccc1-c1nnc(NC(=O)c2onc3ccccc23)s1 [Compound 27, N-(5-(o-tolyl)-1,3,4-thiadiazol-2-yl)benzo[c]isoxazole-3-carboxamide]

IC50: ≥ 1000 nM
SMILES: Cc1cccc(-c2nnc(NC(=O)c3onc4ccccc34)s2)c1 [Compound 28, N-(5-(m-tolyl)-1,3,4-thiadiazol-2-yl)benzo[c]isoxazole-3-carboxamide]

IC50: ≥ 1000 nM
SMILES: Cc1ccc(-c2nnc(NC(=O)c3onc4ccccc34)s2)cc1 [Compound 29, N-(5-(p-tolyl)-1,3,4-thiadiazol-2-yl)benzo[c]isoxazole-3-carboxamide]

IC50: ≥ 1000 nM
SMILES: O=C(Nc1nnc(-c2cccc(O)c2)s1)c1onc2ccccc12 [Compound 30, N-(5-(3-hydroxyphenyl)-1,3,4-thiadiazol-2-yl)benzo[c]isoxazole-3-carboxamide]

IC50: 100 to 500 nM
SMILES: COc1cc(C(=O)Nc2nnc(-c3ccccc3Cl)s2)on1 [Compound 31, N-(5-(2-chlorophenyl)-1,3,4-thiadiazol-2-yl)-3-methoxyisoxazole-5-carboxamide]

IC50: 100 to 500 nM
SMILES: NC(=O)c1cc(C(=O)Nc2nnc(-c3ccccc3Cl)s2)on1 [Compound 32, N5-(5-(2-chlorophenyl)-1,3,4-thiadiazol-2-yl)isoxazole-3,5-dicarboxamide]

IC50: 100 to 500 nM
SMILES: CCc1cc(C(=O)Nc2nnc(-c3ccccc3Cl)s2)on1 [Compound 33, N-(5-(2-chlorophenyl)-1,3,4-thiadiazol-2-yl)-3-ethylisoxazole-5-carboxamide]

IC50: 500 to 1000 nM
SMILES: O=C(Nc1nnc(-c2ccccc2Cl)s1)c1cc(C(F)(F)F)no1 [Compound 34, N-(5-(2-chlorophenyl)-1,3,4-thiadiazol-2-yl)-3-(trifluoromethyl)isoxazole-5-carboxamide]

IC50: 500 to 1000 nM
SMILES: O=C(Nc1nnc(-c2ccccc2Cl)s1)c1cc(C(F)F)no1 [Compound 35, N-(5-(2-chlorophenyl)-1,3,4-thiadiazol-2-yl)-3-(difluoromethyl)isoxazole-5-carboxamide]

IC50: 100 to 500 nM
SMILES: Cc1cc(C(=O)Nc2nnc(-c3ccccc3Cl)s2)on1 [Compound 36, N-(5-(2-chlorophenyl)-1,3,4-thiadiazol-2-yl)-3-methylisoxazole-5-carboxamide]

IC50: < 100 nM
SMILES: N#Cc1cc(C(=O)Nc2nnc(-c3ccccc3Cl)s2)on1 [Compound 37, N-(5-(2-chlorophenyl)-1,3,4-thiadiazol-2-yl)-3-cyanoisoxazole-5-carboxamide]

IC50: 100 to 500 nM
SMILES: O=C(Nc1nnc(-c2ccccc2Cl)s1)c1cc(C2CCOCC2)no1 [Compound 38, N-(5-(2-chlorophenyl)-1,3,4-thiadiazol-2-yl)-3-(tetrahydro-2H-pyran-4-yl)isoxazole-5-carboxamide]

IC50: 100 to 500 nM
SMILES: O=C(Nc1nnc(-c2ccccc2Cl)s1)c1cc(C2CC2)no1 [Compound 39, N-(5-(2-chlorophenyl)-1,3,4-thiadiazol-2-yl)-3-cyclopropylisoxazole-5-carboxamide]

Source: US20250002487A1, “HETEROCYCLIC COMPOUNDS AND USES THEREOF” (Ventus Therapeutics U.S., Inc., priority 2021, published 2025)
